Measurements from patent US20110280831A1, “COMBINATIONS COMPRISING METHOTREXATE AND DHODH INHIBITORS” (priority 2009, published 2011).
Entries after “also recorded” stand apart in the source; their conditions may differ.

Experiments:
human DHODH = human DHODH (Homo sapiens, UniProt Q02127); assay: Inhibition of human DHODH activity assay (DCIP chromogen reduction); type: biochemical; settings: enzyme extracts, 10 min at room temperature, absorbance at 600 nm, duplicate; read-out: hDHODH IC50
Procedure: DHODH activity and its inhibition were studied using a chromogen reduction assay with DCIP (2,6-dichlorophenol-indophenol).
Enzyme extracts (8 μl, ˜1.5 μg of human protein) were incubated in 96-well plates. The assay mixture (200 μl) contained 200 μM CoQD, 100 μM L-DHO, 120 μM DCIP in the assay buffer (100 mM HEPES pH 8.0, 150 mM NaCl, 10% Glicerol, 0.05% Triton X-100) and 2 μl of test compound. The compounds were dissolved in DMSO at a stock concentration of 1 mM, and tested at different concentrations varying from 10 μM to 1 pM to calculate an IC50 (concentration of inhibitor required for 50% of inhibition).
The reaction was initiated by adding the enzyme and then incubated for 10 min at room temperature before measuring DCIP reduction by counting a decrease in absorbance at 600 nm using standard instrumentation (Spectramax).
All reactions were carried out in duplicate and graphs, determining IC50 values for each compound, were plotted using the ABase software.

Swiss mice = assay: Acute hepatotoxicity assay, plasma liver markers; type: in vivo; settings: for ALT plasma level / AST plasma level / BIL (total bilirubin) plasma level: Swiss mice, single 100 mg/kg intraperitoneal, 24 hours later
Procedure: Acute hepatotoxicity assays were performed in Swiss mice. Animals received a single administration of either vehicle, or 100 mg/kg of teriflunomide or a compound of the present invention (compounds from the list indicated previously) by intraperitoneal route. Twenty-four hours later, animals were sacrificed and the levels of liver markers AST (aspartate aminotransferase), ALT (alanine aminotransferase) and BIL (total bilirubin) in plasma were determined.

[1] = test system: rat adjuvant-induced arthritis model (AIA); assay: Efficacy assay in rat adjuvant-induced arthritis model (AIA), curative protocol; type: in vivo, Wistar rats; settings: arthritic rats, oral once a day for 10 days, compound 20 10 mg/Kg/day, MTX 0.05 mg/Kg/day, AUC days 10-21 versus vehicle, mean and SEM
Procedure: The effect of DHODH inhibitor compounds were tested in combination with methotrexate (0.05 mg/Kg/day) in the rat adjuvant-induced arthritis model (AIA) in animals with established disease (curative protocol). Briefly, Complete Freund Adjuvant (CFA) was injected into the left hind footpad of Wistar rats, and 10 days later the swelling of the two rear paws was measured with a plethysnnometer. […] Compounds were administered orally once a day for 10 days and paw volumes were determined every two days up to day 21.
The percentage of inhibition for every group was calculated versus values from vehicle-treated rats. The table below depicts the mean and SEM of one experiment using 6 animals per group.

Chain of human DHODH (Q02127 whole entry): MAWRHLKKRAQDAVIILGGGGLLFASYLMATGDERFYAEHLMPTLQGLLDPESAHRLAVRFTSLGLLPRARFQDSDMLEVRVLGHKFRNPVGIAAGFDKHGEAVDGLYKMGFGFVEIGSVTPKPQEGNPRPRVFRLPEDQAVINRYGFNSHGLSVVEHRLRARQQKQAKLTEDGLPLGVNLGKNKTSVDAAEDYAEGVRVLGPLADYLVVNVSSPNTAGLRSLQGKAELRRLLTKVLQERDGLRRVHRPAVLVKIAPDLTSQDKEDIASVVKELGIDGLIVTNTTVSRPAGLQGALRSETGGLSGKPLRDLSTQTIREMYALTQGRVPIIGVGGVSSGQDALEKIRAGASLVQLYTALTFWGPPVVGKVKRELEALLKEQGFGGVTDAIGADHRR

Compound	IC50 (human DHODH) [nM]	ALT plasma level (Swiss mice) [IU/I]	AST plasma level (Swiss mice) [IU/I]	BIL (total bilirubin) plasma level (Swiss mice) [mg/dL]	% inhibition of the inflammation (AUC) Right paw [1] [%]	change in plasma liver markers (AST, ALT, BIL) compared to vehicle-treated mice, in words (Swiss mice; mice, intraperitoneal route, 100 mg/kg)
O=C(O)c1cc(C2CC2)ccc1Nc1cnc(-c2c(F)cccc2F)nc1 [Compound 20, 5-cyclopropyl-2-(2-(2,6-difluorophenyl)pyrimidin-5-ylamino)benzoic acid]	14	45	98	0.07	32 ± 8	–
Cc1ccc(Nc2cnc(-c3ccccc3)c(C)c2)c(C(=O)O)c1 [Compound 60, 5-Methyl-2-(5-methyl-6-phenylpyridin-3-ylamino)benzoic acid]	53	70	131	0.09	–	–
Cc1ccc(Nc2cnc(-c3ccccc3Cl)c(C)c2)c(C(=O)O)c1 [Compound 71, 2-(6-(2-Chlorophenyl)-5-methylpyridin-3-ylamino)-5-methylbenzoic acid]	14	72	95	0.05	–	–
Cc1ccc(Nc2ccc(-c3ccccc3Cl)nc2)c(C(=O)O)c1 [Compound 85, 2-(6-(2-Chlorophenyl)pyridin-3-ylamino)-5-methylbenzoic acid]	32	43	83	0.13	–	–
Cc1ccc(Nc2cnc(-c3ccccc3F)c(C)c2)c(C(=O)O)c1 [Compound 97, 2-(6-(2-Fluorophenyl)-5-methylpyridin-3-ylamino)-5-methylbenzoic acid]	5	55	92	0.11	–	–
COc1cccc(-c2ncc(Nc3ccc(C4CC4)cc3C(=O)O)cc2C(F)(F)F)c1 [Compound 107, 5-Cyclopropyl-2-(6-(3-methoxyphenyl)-5-(trifluoromethyl)pyridin-3-ylamino)benzoic acid]	7	–	–	–	–	–
O=C(O)c1cc(Cl)ccc1Nc1ccc(-c2ccccc2Cl)nc1 [Compound 110, 5-Chloro-2-(6-(2-chlorophenyl)pyridin-3-ylamino)benzoic acid]	145	–	–	–	–	–
O=C(O)c1cc(C2CC2)ccc1Nc1ccc(-c2ccccc2Cl)nc1 [Compound 112, 2-(6-(2-Chlorophenyl)pyridin-3-ylamino)-5-cyclopropylbenzoic acid]	4	–	–	–	–	–
Cc1ccc(Nc2ccc(-c3ccncc3F)nc2)c(C(=O)O)c1 [Compound 116, 2-(3′-Fluoro-2,4′-bipyridin-5-ylamino)-5-methylbenzoic acid]	90	–	–	–	–	–
Cc1ccc(Nc2ccc(-c3c(F)cccc3F)nc2)c(C(=O)O)c1 [Compound 119, 2-(6-(2,6-Difluorophenyl)pyridin-3-ylamino)-5-methylbenzoic acid]	19	69	96	0.08	–	–
CN(Cc1cnc2nc(N)nc(N)c2n1)c1ccc(C(=O)N[C@@H](CCC(=O)O)C(=O)O)cc1 [MTX, Methotrexate]	–	–	–	–	33 ± 9	–
C/C(O)=C(\C#N)C(=O)Nc1ccc(C(F)(F)F)cc1 [Teriflunomide, reference compound]	–	440	655	0.46	–	dramatic increase; also recorded: drastic increase

Further lines, with some results ahead:

IC50 (human DHODH) [nM]	Compound	ALT plasma level (Swiss mice) [IU/I]	AST plasma level (Swiss mice) [IU/I]	BIL (total bilirubin) plasma level (Swiss mice) [mg/dL]	% inhibition of the inflammation (AUC) Right paw [1] [%]	change in plasma liver markers (AST, ALT, BIL) compared to vehicle-treated mice, in words (Swiss mice; mice, intraperitoneal route, 100 mg/kg)
3	O=C(O)c1cc(C2CC2)ccc1Nc1cnc(-c2ccccc2Cl)nc1 [Compound 121, 2-(2-(2-Chlorophenyl)pyrimidin-5-ylamino)-5-cyclopropylbenzoic acid]	75	105	0.05	–	–
57	Cc1ccc(Nc2cnc(-c3ccccc3Cl)nc2)c(C(=O)O)c1 [Compound 123, 2-(2-(2-Chlorophenyl)pyrimidin-5-ylamino)-5-methylbenzoic acid]	89	113	0.06	–	–
9	Cc1ccc(Nc2cnc(-c3cccc(C(=O)N4CCCC4)c3)c(C)c2)c(C(=O)O)c1 [Compound 125, 5-Methyl-2-(5-methyl-6-(3-(pyrrolidine-1-carbonyl)phenyl)pyridin-3-ylamino)benzoic acid]	–	–	–	–	–
12	Cc1ccc(Nc2cnc(-c3cccc(C(=O)NC4CC4)c3)c(C)c2)c(C(=O)O)c1 [Compound 126, 2-(6-(3-(Cyclopropylcarbamoyl)phenyl)-5-methylpyridin-3-ylamino)-5-methylbenzoic acid]	–	–	–	–	–
10	O=C(O)c1cc(C2CC2)ccc1Nc1cnc(-c2ccccc2F)nc1 [Compound 127, 5-Cyclopropyl-2-(2-(2-fluorophenyl)pyrimidin-5-ylamino)benzoic acid]	56	72	0.07	–	–
9	O=C(O)c1cc(C2CC2)ccc1Nc1cnc(-c2ccccc2C(F)(F)F)nc1 [Compound 128, 2-(2-(2-trifluoromethylphenyl)pyrimidin-5-ylamino)-5-cyclopropylbenzoic acid]	–	–	–	–	–
12	Cc1ccccc1-c1ncc(Nc2ccc(C3CC3)cc2C(=O)O)cn1 [Compound 129, 2-(2-o-tolylpyrimidin-5-ylamino)-5-cyclopropylbenzoic acid]	–	–	–	–	–
38	O=C(O)c1cc(C2CC2)ccc1Nc1cnc(-c2cc(F)ccc2F)nc1 [Compound 131, 2-(2-(2,5-difluorophenyl)pyrimidin-5-ylamino)-5-cyclopropylbenzoic acid]	–	–	–	–	–
21	O=C(O)c1cc(C2CC2)ccc1Nc1cnc(-c2cc(OC(F)(F)F)ccc2F)nc1 [Compound 135, 2-(2-(2-fluoro-5-trifluoromethoxyphenyl)pyrimidin-5-ylamino)-5-cyclopropylbenzoic acid]	–	–	–	–	–
8	O=C(O)c1cc(C2CC2)ccc1Nc1ccc(-c2ccccc2F)nc1 [Compound 138, 2-(6-(2-fluorophenyl)pyridin-3-ylamino)-5-cyclopropylbenzoic acid]	–	–	–	–	–
146	Cc1ccc(Nc2ccc(-c3ccc(F)cc3F)nc2)c(C(=O)O)c1 [Compound 141, 2-(6-(2,4-difluorophenyl)pyridin-3-ylamino)-5-methylbenzoic acid]	–	–	–	–	–
77	Cc1ccc(Nc2ccc(-c3c(F)ccc(F)c3F)nc2)c(C(=O)O)c1 [Compound 144, 2-(6-(2,3,6-trifluorophenyl)pyridin-3-ylamino)-5-methylbenzoic acid]	–	–	–	–	–
46	COc1ccc(F)cc1-c1ncc(Nc2ccc(C)cc2C(=O)O)cc1C [Compound 148, 2-(6-(5-fluoro-2-methoxyphenyl)-5-methylpyridin-3-ylamino)-5-methylbenzoic acid]	–	–	–	–	–
